From patent publication US20070032537A1, “5-Substituted 2h-pyrazole-3-carboxylic acid derivatives as agonists for the acid receptor rup25 for the treatment of dyslipidemia and related diseases” (Arena Pharmaceuticals, Inc., priority 2003, published 2007)
pEC50: −log10 of the molar value. Where two headings read alike, the source gives them in different places. Values belong to the molecule of their own block, whether it stands above or below them.

Columns and labels:
[1] = tested on: adipocyte primary cultures derived from human subcutaneous fat; conditions: read-out: EC50, inhibition of isoproterenol induced lipolysis
hRUP25 [2] = target: T1, hRUP25 (Homo sapiens, UniProt Q8TDS4); experiment: cell-based
hRUP25 [3] = target: T1, hRUP25; experiment: Flash Plate adenylyl cyclase (cAMP) assay for agonists to hRUP25 in stably transfected CHO cells (clone 46); type: cell-based; conditions: read-out: RUP25 (EC50)
Description: A modified Flash Plate™ Adenylyl Cyclase kit (New England Nuclear; Cat. No. SMP004A) is used for direct identification of candidate compounds as agonists to hRUP25 in accordance with the following protocol:
Stably transfected CHO cells (clone 46) were harvested from flasks via non-enzymatic means. The cells were washed in PBS and resuspended in the manufacturer's Assay Buffer. Live cells were counted using a hemacytometer and Trypan blue exclusion, and the cell concentration was adjusted to 2×10^6 cells/ml. cAMP standards and Detection Buffer (comprising 2 μCi of tracer [^125I]-cAMP (100 μl) to 11 ml Detection Buffer) were prepared and maintained in accordance with the manufacturer's instructions. Candidate compounds identified as per above (if frozen, thawed at room temperature) were added to their respective wells (preferably wells of a 96-well plate) at increasing concentrations (3 μl/well; 12 μM final assay concentration). To these wells, 100,000 cells in 50 μl of Assay Buffer were added and the mixture was then incubated for 30 minutes at room temperature, with gentle shaking. Following the incubation, 100 μl of Detection Buffer was added to each well, followed by incubation for 2-24 hours. Plates were counted in a Wallac MicroBeta™ plate reader using “Prot. #31” (as per manufacturer instructions).

[4] = tested on: rat epidimal fat derived adipocytes
[5] = tested on: adipocyte primary cultures derived from human subcutaneous fat; experiment: cells; conditions: read-out: EC50, inhibition of isoproterenol induced lipolysis

T1 sequence (Q8TDS4 whole entry): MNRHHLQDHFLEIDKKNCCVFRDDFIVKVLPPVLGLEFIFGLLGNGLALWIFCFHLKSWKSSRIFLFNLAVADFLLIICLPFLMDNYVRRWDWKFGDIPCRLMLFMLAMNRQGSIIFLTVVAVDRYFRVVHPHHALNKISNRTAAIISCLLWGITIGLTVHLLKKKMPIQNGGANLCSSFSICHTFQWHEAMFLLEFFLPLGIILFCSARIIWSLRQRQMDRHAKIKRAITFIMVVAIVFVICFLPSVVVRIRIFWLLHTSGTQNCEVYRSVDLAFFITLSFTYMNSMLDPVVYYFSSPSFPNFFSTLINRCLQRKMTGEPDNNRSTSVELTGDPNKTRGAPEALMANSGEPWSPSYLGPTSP

SMILES: c1cncc(-c2nn[nH]n2)c1 [Compound P-3-T, 3-tetrazole-5-pyridine]
- pEC50 [1]: 6.66

SMILES: CN1CCCC1c1cccnc1 (stereo not shown) [nicotine]
- pEC50 (hRUP25 [2]): 5.01

- pEC50 (hRUP25 [3]): 5.10
SMILES: COCc1cc(C(=O)O)[nH]n1 [Compound 63, 5-Methoxymethyl-2H-pyrazole-3-carboxylic acid]

- pEC50 (hRUP25 [3]): 5.37
SMILES: CSCc1cc(C(=O)O)[nH]n1 [Compound 48, 5-Methylsulfanylmethyl-2H-pyrazole-3-carboxylic acid]

SMILES: O=C(O)c1cccnc1 [nicotinic acid, pyridine-3-carboxylic acid]
- inhibition of isoproterenol induced lipolysis ([4]; 10 μM): inhibiting isoproterenol induced lipolysis
- dose-dependence of inhibition of isoproterenol induced lipolysis ([4]; increasing concentrations): dose-dependent inhibition
- pEC50 [5]: 6.15
